In patent publication US20040258620A1, “(Ethylene)-( propylene)-triaminepentaacetic acid derivatives, process for their production, and their use for the production of pharmaceutical agents” (priority 2001, published 2004):
“And” between values parts separate entries of the source, which are not always exact repeats. Identical values can stand only once.

Experiments:
[1] = Proton relaxivities (1H NMRD profiles) of Gd(EPTPA-bz-NO2); assay type: physicochemical
Procedure: According to the ^17O chemical shifts, the complex has one inner sphere water molecule. […] The water exchange rate obtained for […]) is in the optimal range to attain high proton relaxivities. This property, together with the high thermodynamic stability, is a unique feature among Gd(III) chelates known so far and it makes […]) an ideal synthon to be attached to any rigid, slowly tumbling macromolecular agent. […] (bottom curve) and 25° C. (top curve).

[2] = Peak-to-peak line widths of the EPR band at 0.34 T; assay type: physicochemical; set-up: unit not given here
Text: (§1) The Gd(EPTPA-bz-NO2) complex (Formula VII, Z is NO2) has been investigated by ^17O NMR, EPR and ^1H NMRD.

[3] = Variable temperature 17O NMR relaxation rates and chemical shifts of GdEPTPA-bz-NO2; assay type: physicochemical; settings: for ^17O NMR T1 / ^17O NMR T2 / ^17O NMR ν / ^17O NMR chemical shift Δw / ^17O NMR reduced chemical shift Δwr: C = 55.79 mM; for ^17O NMR T1 / ^17O NMR T2 / ^17O NMR ν: pH = 6.0; for ^17O NMR chemical shift Δw / ^17O NMR reduced chemical shift Δwr: pH = 6.0, reference = HClO4
Text: as §1

[4] = Simultaneous analysis of 17O NMR, EPR and NMRD data
Text: The ^17O NMR, NMRD and EPR experimental data (points) and the fitted curves (lines) as obtained in a simultaneous analysis, according to the method of Powell et al., J. Am. Chem. Soc.

[5] = 17O NMR on Gd(TRITA-bz-NO2); assay type: physicochemical
Text: The rate of water exchange, Kes, has been measured on Gd(TRITA-bz-NO2) by ^17O NMR. The numerical experimental data (reduced transverse and longitudinal ^17O relaxation rates, reduced chemical shifts) measured on a Gd(TRITA-bz-NO2) solution are shown in Table 6.

## O=C([O-])CN(CCCN(CC(=O)[O-])CC(Cc1ccc([N+](=O)[O-])cc1)N(CC(=O)[O-])CC(=O)[O-])CC(=O)[O-].[Gd+3] (centres unmarked) [Gd(EPTPA-bz-NO2)]
[1]; 24.8° C., proton Larmor frequency 0.022 MHz
  Proton relaxivity: 8.54 mM⁻¹ s⁻¹
[1]; 24.8° C., proton Larmor frequency 0.036 MHz
  Proton relaxivity: 8.63 mM⁻¹ s⁻¹
[1]; 24.8° C., proton Larmor frequency 0.061 MHz
  Proton relaxivity: 8.69 mM⁻¹ s⁻¹
[1]; 24.8° C., proton Larmor frequency 0.101 MHz
  Proton relaxivity: 8.34 mM⁻¹ s⁻¹
[1]; 24.8° C., proton Larmor frequency 0.168 MHz
  Proton relaxivity: 8.47 mM⁻¹ s⁻¹
[1]; 24.8° C., proton Larmor frequency 0.280 MHz
  Proton relaxivity: 8.55 mM⁻¹ s⁻¹
[1]; 24.8° C., proton Larmor frequency 0.467 MHz
  Proton relaxivity: 8.21 mM⁻¹ s⁻¹
[1]; 24.8° C., proton Larmor frequency 0.778 MHz
  Proton relaxivity: 8.29 mM⁻¹ s⁻¹ and 8.39 mM⁻¹ s⁻¹
[1]; 24.8° C., proton Larmor frequency 2.159 MHz
  Proton relaxivity: 7.41 mM⁻¹ s⁻¹
[1]; 24.8° C., proton Larmor frequency 3.598 MHz
  Proton relaxivity: 7.23 mM⁻¹ s⁻¹
[1]; 24.8° C., proton Larmor frequency 5.999 MHz
  Proton relaxivity: 6.33 mM⁻¹ s⁻¹
[1]; 24.8° C., proton Larmor frequency 9.998 MHz
  Proton relaxivity: 5.56 mM⁻¹ s⁻¹
[1]; 24.8° C., proton Larmor frequency 12.001 MHz
  Proton relaxivity: 5.47 mM⁻¹ s⁻¹
[1]; 24.8° C., proton Larmor frequency 14.002 MHz
  Proton relaxivity: 5.15 mM⁻¹ s⁻¹
[1]; 24.8° C., proton Larmor frequency 16.000 MHz
  Proton relaxivity: 4.98 mM⁻¹ s⁻¹
[1]; 24.8° C., proton Larmor frequency 18.002 MHz
  Proton relaxivity: 4.91 mM⁻¹ s⁻¹
[1]; 24.8° C., proton Larmor frequency 20.001 MHz
  Proton relaxivity: 4.73 mM⁻¹ s⁻¹
[1]; 37.3° C., proton Larmor frequency 0.022 MHz
  Proton relaxivity: 6.47 mM⁻¹ s⁻¹
[1]; 37.3° C., proton Larmor frequency 0.036 MHz
  Proton relaxivity: 6.56 mM⁻¹ s⁻¹
[1]; 37.3° C., proton Larmor frequency 0.061 MHz
  Proton relaxivity: 6.44 mM⁻¹ s⁻¹
[1]; 37.3° C., proton Larmor frequency 0.101 MHz
  Proton relaxivity: 6.90 mM⁻¹ s⁻¹
[1]; 37.3° C., proton Larmor frequency 0.168 MHz
  Proton relaxivity: 6.55 mM⁻¹ s⁻¹
[1]; 37.3° C., proton Larmor frequency 0.280 MHz
  Proton relaxivity: 6.57 mM⁻¹ s⁻¹
[1]; 37.3° C., proton Larmor frequency 0.467 MHz
  Proton relaxivity: 6.49 mM⁻¹ s⁻¹
[1]; 37.3° C., proton Larmor frequency 0.778 MHz
  Proton relaxivity: 6.19 mM⁻¹ s⁻¹ and 6.36 mM⁻¹ s⁻¹
[1]; 37.3° C., proton Larmor frequency 2.159 MHz
  Proton relaxivity: 5.80 mM⁻¹ s⁻¹
[1]; 37.3° C., proton Larmor frequency 3.598 MHz
  Proton relaxivity: 5.67 mM⁻¹ s⁻¹
[1]; 37.3° C., proton Larmor frequency 5.999 MHz
  Proton relaxivity: 5.21 mM⁻¹ s⁻¹
[1]; 37.3° C., proton Larmor frequency 9.998 MHz
  Proton relaxivity: 4.42 mM⁻¹ s⁻¹
[1]; 37.3° C., proton Larmor frequency 12.001 MHz
  Proton relaxivity: 4.18 mM⁻¹ s⁻¹
[1]; 37.3° C., proton Larmor frequency 14.002 MHz
  Proton relaxivity: 4.20 mM⁻¹ s⁻¹
[1]; 37.3° C., proton Larmor frequency 16.000 MHz
  Proton relaxivity: 4.26 mM⁻¹ s⁻¹
[1]; 37.3° C., proton Larmor frequency 18.002 MHz
  Proton relaxivity: 4.12 mM⁻¹ s⁻¹
[2]; T 3 ° C.
  ΔHpp, peak-to-peak line width of the EPR band: 363.25
[2]; T 23.5 ° C.
  ΔHpp, peak-to-peak line width of the EPR band: 297.4
[2]; T 34.1 ° C.
  ΔHpp, peak-to-peak line width of the EPR band: 286
[2]; T 40.3 ° C.
  ΔHpp, peak-to-peak line width of the EPR band: 280.2
[2]; T 47.6 ° C.
  ΔHpp, peak-to-peak line width of the EPR band: 283.15
[2]; T 56.3 ° C.
  ΔHpp, peak-to-peak line width of the EPR band: 297.4
[2]; T 72.4 ° C.
  ΔHpp, peak-to-peak line width of the EPR band: 326
[3]; T 274.5 K
  ^17O NMR T1: 0.00301 s
  ^17O NMR T2: 0.00135 s
  ^17O NMR ν: −3678.6 Hz
  ^17O NMR chemical shift Δw: −133.1 Hz
  ^17O NMR reduced chemical shift Δwr: −8.33E+05 Hz
[3]; T 286.7 K
  ^17O NMR T1: 0.00428 s
  ^17O NMR T2: 0.00167 s
  ^17O NMR ν: −3686.0 Hz
  ^17O NMR chemical shift Δw: −125.36 Hz
  ^17O NMR reduced chemical shift Δwr: −7.84E+05 Hz
[3]; T 293.5 K
  ^17O NMR T1: 0.00513 s
  ^17O NMR T2: 0.00198 s
  ^17O NMR ν: −3690.4 Hz
  ^17O NMR chemical shift Δw: −125.25 Hz
  ^17O NMR reduced chemical shift Δwr: −7.84E+05 Hz
[3]; T 298.0 K
  ^17O NMR T1: 0.00599 s
  ^17O NMR T2: 0.00263 s
  ^17O NMR ν: −3705.7 Hz
  ^17O NMR chemical shift Δw: −123.5 Hz
  ^17O NMR reduced chemical shift Δwr: −7.73E+05 Hz
[3]; T 306.7 K
  ^17O NMR T1: 0.00734 s
  ^17O NMR T2: 0.00263 s
  ^17O NMR ν: −3702.7 Hz
  ^17O NMR chemical shift Δw: −120.4 Hz
  ^17O NMR reduced chemical shift Δwr: −7.53E+05 Hz
[3]; T 324.2 K
  ^17O NMR T1: 0.0104 s
  ^17O NMR T2: 0.00425 s
  ^17O NMR ν: −3751.5 Hz
  ^17O NMR chemical shift Δw: −121.2 Hz
  ^17O NMR reduced chemical shift Δwr: −7.58E+05 Hz
[3]; T 338.7 K
  ^17O NMR T1: 0.0137 s
  ^17O NMR T2: 0.00616 s
  ^17O NMR ν: −3764.2 Hz
  ^17O NMR chemical shift Δw: −99.4 Hz
  ^17O NMR reduced chemical shift Δwr: −6.22E+05 Hz
[3]; T 359.7 K
  ^17O NMR T1: 0.0189 s
  ^17O NMR T2: 0.00967 s
  ^17O NMR ν: −3803.0 Hz
  ^17O NMR chemical shift Δw: −95.8 Hz
  ^17O NMR reduced chemical shift Δwr: −5.99E+05 Hz
[3]; according to the ^17O chemical shifts
  inner sphere water molecules of the complex: one
[4]
  water exchange rate kex^298: 1.4e+08 s⁻¹
[4]; relative to Gd(DTPA)
  water exchange rate, times higher than that measured on Gd(DTPA): 40 times

## O=C([O-])CN1CCN(CC(=O)[O-])CCN(CC(=O)[O-])CCN(CC(=O)[O-])CC1.[Gd+3] [Gd(DOTA)(H2O)^−, reference compound]
[5]; from ^17O NMR data
  A/ħ: −3.7 10^6 rad s^−1
  ER: 16.1 kJ/mol
  ΔH^x: 49.8 kJ/mol
  ΔS*: +10.5 Jmol^−1K^−1
  τR^298: 77 ps
[5]; water exchange rate from ^17O NMR data
  kex^298: 4.1 10^6 s^−1
